ChEMBL document CHEMBL3525990, “Organic anion transporter 3 interacts selectively with lipophilic β-lactam antibiotics” (Drug Metab Dispos, 2013)
pIC50: −log10 of the molar value.

Key:
[1] = target: T1, Organic anion transporter 3 (Homo sapiens, UniProt Q8TCC7); test: Inhibition of human OAT3 expressed in CHO cells assessed as inhibition of fluorescein uptake at 500 uM over 20 mins relative to untreated-control; assay type: ADME, cell-based; conditions: cho, 20 min, 500 µM
T1 sequence (Q8TCC7 whole entry): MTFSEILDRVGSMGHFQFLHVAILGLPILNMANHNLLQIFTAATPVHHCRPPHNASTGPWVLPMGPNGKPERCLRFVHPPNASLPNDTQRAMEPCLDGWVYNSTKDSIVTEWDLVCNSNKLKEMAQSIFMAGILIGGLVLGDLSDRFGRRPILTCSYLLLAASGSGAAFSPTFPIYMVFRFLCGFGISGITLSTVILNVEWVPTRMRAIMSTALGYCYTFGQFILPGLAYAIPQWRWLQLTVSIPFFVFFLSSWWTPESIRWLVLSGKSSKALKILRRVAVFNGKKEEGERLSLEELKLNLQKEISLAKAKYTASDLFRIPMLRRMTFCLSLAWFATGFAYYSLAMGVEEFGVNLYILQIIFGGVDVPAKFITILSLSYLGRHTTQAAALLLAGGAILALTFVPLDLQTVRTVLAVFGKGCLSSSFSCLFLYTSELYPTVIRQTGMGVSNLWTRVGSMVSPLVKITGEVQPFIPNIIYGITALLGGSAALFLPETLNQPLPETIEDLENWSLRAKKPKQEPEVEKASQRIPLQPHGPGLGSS

[2] = target: T2, Solute carrier family 22 member 6 (Mus musculus, UniProt Q8VC69); test: Inhibition of mouse OAT1 expressed in CHO cells assessed as inhibition of fluorescein uptake at 500 uM over 20 mins relative to untreated-control; assay type: ADME, cell-based
T2 sequence (Q8VC69 whole entry): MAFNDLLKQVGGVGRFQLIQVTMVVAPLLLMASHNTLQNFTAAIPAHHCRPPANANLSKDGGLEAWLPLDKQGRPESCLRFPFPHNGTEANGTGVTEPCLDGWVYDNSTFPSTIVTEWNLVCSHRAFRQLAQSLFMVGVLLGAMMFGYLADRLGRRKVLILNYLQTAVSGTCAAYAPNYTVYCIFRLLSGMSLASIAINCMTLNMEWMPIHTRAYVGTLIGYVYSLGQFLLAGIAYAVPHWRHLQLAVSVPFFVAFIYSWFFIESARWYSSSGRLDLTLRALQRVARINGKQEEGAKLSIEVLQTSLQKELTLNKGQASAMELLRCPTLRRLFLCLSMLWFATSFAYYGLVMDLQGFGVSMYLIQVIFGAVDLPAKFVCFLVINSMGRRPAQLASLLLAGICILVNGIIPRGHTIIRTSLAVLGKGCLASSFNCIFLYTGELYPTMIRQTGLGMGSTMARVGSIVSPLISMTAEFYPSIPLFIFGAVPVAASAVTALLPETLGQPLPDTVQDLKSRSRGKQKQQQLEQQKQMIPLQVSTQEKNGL

[3] = target: T3, Organic anion transporter 3 (Mus musculus, UniProt O88909); test: Inhibition of mouse OAT3 expressed in CHO cells assessed as inhibition of fluorescein uptake at 500 uM over 20 mins relative to untreated-control; assay type: ADME, cell-based
T3 sequence (O88909 whole entry): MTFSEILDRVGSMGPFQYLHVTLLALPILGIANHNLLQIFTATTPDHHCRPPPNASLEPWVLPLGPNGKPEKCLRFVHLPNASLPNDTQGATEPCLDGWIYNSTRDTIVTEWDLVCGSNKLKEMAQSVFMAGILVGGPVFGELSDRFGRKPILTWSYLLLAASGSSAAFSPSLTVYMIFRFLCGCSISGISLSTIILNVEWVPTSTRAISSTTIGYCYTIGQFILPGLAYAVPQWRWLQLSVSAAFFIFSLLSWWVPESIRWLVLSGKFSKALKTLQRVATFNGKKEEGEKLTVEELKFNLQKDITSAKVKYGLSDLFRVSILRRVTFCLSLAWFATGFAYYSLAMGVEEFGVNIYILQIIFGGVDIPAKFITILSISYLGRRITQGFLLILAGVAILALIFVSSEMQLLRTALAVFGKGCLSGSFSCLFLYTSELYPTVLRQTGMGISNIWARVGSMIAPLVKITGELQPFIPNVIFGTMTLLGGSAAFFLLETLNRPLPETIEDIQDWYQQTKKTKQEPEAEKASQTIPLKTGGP

[4] = target: T3, Organic anion transporter 3; test: Inhibition of mouse OAT3 expressed in CHO cells assessed as inhibition of fluorescein uptake over 20 mins; assay type: ADME, cell-based
OAT3 = target: T4, OAT3 (Homo sapiens, UniProt Q8TCC7); test: Inhibition of human OAT3 expressed in CHO cells assessed as inhibition of fluorescein uptake over 20 mins relative to untreated-control; assay type: ADME, cell-based; conditions: CHO cells expressing human OAT3, probe fluorescein
T4 sequence (Q8TCC7 whole entry): T1 sequence (Q8TCC7 whole entry)

[5] = target: T1, Organic anion transporter 3; test: Inhibition of human OAT3 using estrone-3-sulfate as substrate; assay type: ADME

SMILES	inhibition (INH) [1]	inhibition (INH) [2]	inhibition (INH) [3]	pIC50 [4]	inhibition at 20 min (OAT3) [%]	pIC50 [5]
CC1(C)S[C@@H]2[C@H](NC(=O)[C@H](NC(=O)N3CCNC3=O)c3ccccc3)C(=O)N2[C@H]1C(=O)O [AZLOCILLIN]	Not Active	Not Active	Not Active			
CC(=O)OCC1=C(C(=O)O)N2C(=O)[C@@H](NC(=O)Cc3cccs3)[C@H]2SC1 [CEPHALOTHIN]	Not Active		Not Active	4.48		
CC1(C)S[C@@H]2[C@H](NC(=O)Cc3ccccc3)C(=O)N2[C@H]1C(=O)O [PENICILLIN G]	Active			4.05		
CO[C@@]1(NC(=O)Cc2cccs2)C(=O)N2C(C(=O)O)=C(COC(N)=O)CS[C@@H]21 [CEFOXITIN]	Not Active	Not Active	Not Active	4.24		
Cc1onc(-c2c(Cl)cccc2Cl)c1C(=O)N[C@@H]1C(=O)N2[C@@H]1SC(C)(C)[C@@H]2C(=O)O [DICLOXACILLIN]	Active	Active	Active	4.78		
CCN1CCN(C(=O)N[C@@H](C(=O)N[C@@H]2C(=O)N3C(C(=O)O)=C(CSc4nnnn4C)CS[C@H]23)c2ccc(O)cc2)C(=O)C1=O [CEFOPERAZONE]	Not Active		Not Active			
CC1(C)S[C@@H]2[C@H](NC(=O)C(C(=O)O)c3ccccc3)C(=O)N2[C@H]1C(=O)O (stereo partly specified) [CARBENICILLIN]	Not Active		Not Active		70	
CC1(C)S[C@@H]2[C@H](NC(=O)COc3ccccc3)C(=O)N2[C@H]1C(=O)O [PENICILLIN V]	Not Active	Not Active	Not Active	4.31		
CC1(C)S[C@@H]2[C@H](N)C(=O)N2[C@H]1C(=O)O	Not Active	Not Active	Not Active			
CO/N=C(\C(=O)N[C@@H]1C(=O)N2C(C(=O)O)=C(COC(C)=O)CS[C@H]12)c1csc(N)n1 [CEFOTAXIME]	Not Active		Not Active			
CC1=C(C(=O)O)N2C(=O)[C@@H](NC(=O)[C@H](N)c3ccccc3)[C@H]2SC1 [CEPHALEXIN ANHYDROUS]	Not Active	Not Active				
CC(C)(O/N=C(\C(=O)N[C@@H]1C(=O)N2C(C(=O)[O-])=C(C[n+]3ccccc3)CS[C@H]12)c1csc(N)n1)C(=O)O [CEFTAZIDIME]	Not Active	Not Active	Not Active			
CC1(C)S[C@@H]2[C@H](NC(=O)[C@H](N)c3ccccc3)C(=O)N2[C@H]1C(=O)O [AMPICILLIN]	Not Active	Not Active	Not Active			
CO[C@@]1(NC(=O)CSCC#N)C(=O)N2C(C(=O)O)=C(CSc3nnnn3C)CS[C@@H]21 [CEFMETAZOLE]	Not Active	Active	Not Active	3.98		
N[C@@H](C(=O)N[C@@H]1C(=O)N2C(C(=O)O)=C(Cl)CS[C@H]12)c1ccccc1 [CEFACLOR ANHYDROUS]	Active	Not Active	Not Active			3.92
C[C@H]1[C@H](NC(=O)/C(=N\OC(C)(C)C(=O)O)c2csc(N)n2)C(=O)N1S(=O)(=O)O [AZTREONAM]	Not Active	Not Active	Not Active			
Cc1onc(-c2ccccc2)c1C(=O)N[C@@H]1C(=O)N2[C@@H]1SC(C)(C)[C@@H]2C(=O)O [OXACILLIN]	Active	Not Active	Active	4.46		
CC1(C)S[C@@H]2[C@H](NC(=O)[C@H](C(=O)O)c3ccsc3)C(=O)N2[C@H]1C(=O)O [TICARCILLIN]	Not Active		Not Active	3.63		
Cc1onc(-c2ccccc2Cl)c1C(=O)N[C@@H]1C(=O)N2[C@@H]1SC(C)(C)[C@@H]2C(=O)O [CLOXACILLIN]	Not Active	Not Active	Not Active	4.51		
CO/N=C(\C(=O)N[C@@H]1C(=O)N2C(C(=O)O)=C(CSC(=O)c3ccco3)CS[C@H]12)c1csc(N)n1 [CEFTIOFUR]	Not Active	Not Active	Not Active	4.45		
CCN1CCN(C(=O)N[C@@H](C(=O)N[C@@H]2C(=O)N3[C@@H]2SC(C)(C)[C@@H]3C(=O)O)c2ccccc2)C(=O)C1=O [PIPERACILLIN]	Not Active	Active	Not Active			
COc1cccc(OC)c1C(=O)N[C@@H]1C(=O)N2[C@@H]1SC(C)(C)[C@@H]2C(=O)O [METHICILLIN]	Not Active	Not Active	Not Active	3.94		
CO/N=C(\C(=O)N[C@@H]1C(=O)N2C(C(=O)O)=C(COC(N)=O)CS[C@H]12)c1ccco1 [CEFUROXIME]	Not Active	Not Active	Not Active			
NC(=O)c1cc[n+](CC2=C(C(=O)O)N3C(=O)[C@@H](NC(=O)[C@@H](c4ccccc4)S(=O)(=O)[O-])[C@H]3SC2)cc1 [CEFSULODIN]	Not Active	Not Active	Not Active			
CCOc1ccc2ccccc2c1C(=O)N[C@@H]1C(=O)N2[C@@H]1SC(C)(C)[C@@H]2C(=O)O [NAFCILLIN]	Not Active	Not Active	Not Active	4.46		
